How the values were obtained:
[1] = test system: leukemia cells MV-4-11; experiment: Cell proliferation assay, CELL TITER-GLO (CTG) luminescence, MV-4-11; format: cell-based
Description: (§1) Example B: Cell Proliferation Assay
(§2) The effects of the compounds of the invention on the proliferation of leukemia cells MV-4-11 and lung cancer cells NCI-H358 were evaluated using in vitro cell assays. The detection method used in the experiment is the CELL TITER-GLO (CTG) luminescence method, which can detect the number of viable cells by quantifying ATP. Because ATP participates in a variety of enzymatic reactions in vivo, it is an indicator of the metabolism of living cells, and its content directly reflects the number and state of cells. During the experiment, CellTiter-Glo™ reagent was added to the cell culture medium to measure the luminescence value. The value is proportional to the amount of ATP, and ATP is positively related to the number of living cells, so the cell viability can be examined by detecting the ATP content.
(§3) experiment procedure: • (1) Cell plating: • Take a bottle of MV-4-11 cells in logarithmic growth phase, resuspend the cells by centrifugation and count them. After adjusting the cell density, they were seeded into a 96-well plate (Corning #3917). After culturing in a 5% CO2 incubator for 24 hrs, the compound of the present invention was added for treatment; • Take a bottle of NCI-H358 cells in logarithmic growth phase, digest and resuspend the cells, count them, adjust the cell density, and inoculate them into a 96-well transparent ultra-low adsorption cell culture plate (Corning #3474), inoculate 2000 cells per well. The plate was placed in an incubator at 37° C. and 5% CO2 for 24 hrs, and then the compound of the present invention was added for treatment; • (2) Cell compound treatment: • An appropriate amount of the compound of the present invention was prepared for cell treatment. The final concentration of the compound from high to low was 1000 nM, 333.3 nM, 111.1 nM, 37.04 nM, 12.35 nM, 4.115 nM, 1.372 nM, 0.4572 nM, 0.1524 nM, and 0 nM. The plate was placed in a 37° C., 5% CO2 incubator for 120 hrs. Only adding medium without cell wells was set as the blank group; the group with compound concentration of 0 nM was the zero-adjusting group. • (3) CTG detection: • After NCI-H358 cells were cultured for 96 hrs, 50 µL of CellTiter-Glo® Luminescent Cell Viability Assay solution was added to each well, shaken gently for 2 mins, and incubated at room temperature for 10 mins. The cell reaction system was transferred to a white-bottomed 96-well plate. Read the detection value of each well on a multi-function microplate reader. • After MV-4-11 cells were cultured for 120 hrs, 50 µL of CellTiter-Glo® Luminescent Cell Viability Assay solution was added to each well, gently shaken for 2 mins, and incubated at room temperature for 10 mins. Check the value. • (4) Data analysis: • Calculate the inhibition rate from the luminescence value readings, • [formula]
(§4) The log(inhibitor) vs. response-Variable slope of GraphPad Prism was fitted to dose-response curves and IC50s of compounds that inhibited cell proliferation were calculated.

[2] = target: SHP2 (Homo sapiens (Human), UniProt Q06124); experiment: SHP2 allosteric inhibitory enzyme activity assay (DiFMUP fluorescence); format: biochemical; settings: read-out: SHP2 enzymatic activity IC50
Text: Example A: SHP2 Allosteric Inhibitory Enzyme Activity Assay
SHP2 is allosterically activated by binding of a bis-tyrosyl-phosphorylated peptide to its Src homology 2 (SH2) domain. This later activation step results in the release of the autoinhibitory interface of SHP2, which in turn activates the SHP2 protein tyrosine phosphatase (PTP) and is available for substrate recognition and reaction catalysis. The catalytic activity of SHP2 was monitored using the surrogate DiFMUP in a rapid fluorescence assay format.
experiment procedure: • (1) Compound preparation: • The compounds of the present invention (10 mM stock solution) were diluted to appropriate times with 100% DMSO, and the final test concentrations of the compounds of the present invention were 10 µM, 3.3333 µM, 1.1111 µM, 0.3704 µM, 0.1235 µM, 0.0412 µM, 0.0137 µM, 0.0046 µM, 0.0015 µM, 0.00 µM; • (2) Prepare the enzyme reaction working solution: • Perform SHP2 enzymatic assays in 96-well black polystyrene plates (flat bottom, low flange, non-binding surface) (Perki Elmer, Cat#6005270) at room temperature using a final reaction volume of 50 µL and the following assay buffer conditions: 60 mM HEPES, 75 mM NaCl, 75 mM KCl, 0.05% BRIJ-35, 1 mM EDTA, 5 mM DTT. • (3) Enzyme-catalyzed reaction and data monitoring: • Add the compound of the present invention to the corresponding 96-well plate, and set the blank test well without compound and enzyme only with buffer. Thaw SHP2 Activating Peptide (IRS1_pY1172(dPEG8)pY1222) on ice, add 25 µM to each well, then add 0.2 ng of SHP2 protein sample to the corresponding well plate and incubate at room temperature for 1 hour. The surrogate substrate DiFMUP (Invitrogen, Cat #D6567) was added to the reaction and allowed to react for 1 hour at room temperature. Fluorescence signals were monitored using a microplate reader (Envision, Perki Elmer) using excitation and emission wavelengths of 340 nm and […], respectively. • (4) Data analysis: • Calculation Formula: • [formula]
Among them: Conversion_sample is the conversion rate reading of the sample; Conversion_min is the average value of blank control wells, representing the conversion rate readings of wells without enzymatic activity; Conversion_max is the mean ratio of positive control wells, representing the conversion rate readings of wells without compound inhibition. The log(inhibitor) vs. response-Variable slope of the analysis software GraphPad Prism was used to fit the dose-response curve, and the IC50 value of the compound for the enzymatic activity was calculated.

[3] = test system: lung cancer cells NCI-H358; experiment: Cell proliferation assay, CELL TITER-GLO (CTG) luminescence, NCI-H358; format: cell-based; settings: cultured for 96 hrs
Description: as §1, §2, §3, §4

[4] = Homo sapiens, MV4-11, cultured for 120 hrs
[5] = Homo sapiens, NCI-H358, ultra-low adsorption plate

SHP2, sequence (Q06124 whole entry): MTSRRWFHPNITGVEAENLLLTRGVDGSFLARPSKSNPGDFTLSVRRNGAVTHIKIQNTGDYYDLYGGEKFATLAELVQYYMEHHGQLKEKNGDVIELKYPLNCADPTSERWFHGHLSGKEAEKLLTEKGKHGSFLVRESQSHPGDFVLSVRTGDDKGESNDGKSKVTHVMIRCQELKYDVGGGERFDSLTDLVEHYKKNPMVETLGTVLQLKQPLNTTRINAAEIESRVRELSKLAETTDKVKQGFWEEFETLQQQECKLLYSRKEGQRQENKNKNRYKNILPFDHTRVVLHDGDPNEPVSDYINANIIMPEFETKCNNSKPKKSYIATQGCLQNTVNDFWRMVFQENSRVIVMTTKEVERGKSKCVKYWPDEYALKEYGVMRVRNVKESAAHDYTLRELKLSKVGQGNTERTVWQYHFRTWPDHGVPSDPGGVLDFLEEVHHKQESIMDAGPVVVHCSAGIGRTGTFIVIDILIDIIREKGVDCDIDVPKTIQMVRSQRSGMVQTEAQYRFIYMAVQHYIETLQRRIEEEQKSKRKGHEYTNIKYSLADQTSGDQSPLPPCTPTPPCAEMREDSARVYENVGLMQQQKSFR

Compound | IC50 [1, 4] [nM] | IC50 [2] [nM] | IC50 [3, 5] [nM] | IC50 ([1]; cultured for 120 hrs) [nM] | IC50 ([3]; ultra-low adsorption plate) [nM]
N[C@@H]1c2ccccc2CC12CCN(c1ncc(C#CCOc3ccccc3)nc1CO)CC2 [Compound A01, (S)-(3-(1-amino-1,3-dihydrospiro [indene-2,4′-piperidine]-1′-yl)-6-(3-phenoxyprop-1-yn-1-yl)pyrazin-2-yl)methanol] | 2.6 | 1.2 | 7.3 | – | –
COc1cccc(OCC#Cc2cnc(N3CCC4(CC3)Cc3ccccc3[C@H]4N)c(CO)n2)c1 [Compound A02, (S)-(3-(1-amino-1,3-dihydrospiro [indene-2,4′-piperidine]-1′-yl)-6-(3-(3-methoxyphenoxy)prop-1-yn-1-yl)pyrazin-2-yl) methanol] | 5 | 0.7 | 7.8 | – | –
Nc1cccc(OCC#Cc2cnc(N3CCC4(CC3)Cc3ccccc3[C@H]4N)c(CO)n2)c1 [Compound A03] | – | 1.1 | – | 1.5 | 2.5
CC(=O)Nc1cccc(OCC#Cc2cnc(N3CCC4(CC3)Cc3ccccc3[C@H]4N)c(CO)n2)c1 [Compound A04, (S)-N-(3-((3-(5-(1-amino-1,3-dihydrospiro[indene-2,4′-piperidin]-1′-yl)-6-(hydroxymethyl)pyrazin-2-yl)prop-2-yn-1-yl)oxy)phenyl)acetamide] | 3.6 | 2.9 | 4 | – | –
N[C@@H]1c2ccccc2CC12CCN(c1ncc(C#CCOc3cccc(Cl)c3F)nc1CO)CC2 [Compound A05, (S)-(3-(1-amino-1,3-dihydrospiro[indene-2,4′-piperidin]-1′-yl)-6-(3-(3-chloro-2-fluorophenoxy)prop-1-yn-1-yl)pyrazin-2-yl)methanol] | 14 | – | 15 | – | –
COc1cccc(SCC#Cc2cnc(N3CCC4(CC3)Cc3ccccc3[C@H]4N)c(CO)n2)c1 [Compound A06, (S)-(3-(1-amino-1,3-dihydrospiro[indene-2,4′-piperidin]-1′-yl)-6-(3-((3-methoxyphenyl)thio)prop-1-yn-1-yl)pyrazin-2-yl)methanol] | 8 | 6.8 | 11 | – | –
N[C@@H]1c2ccccc2CC12CCN(c1ncc(C#CCNc3ccccc3)nc1CO)CC2 [Compound A07, (S)-(3-(1-amino-1,3-dihydrospiro [indene-2,4′-piperidine]-1′-yl)-6-(3-(phenylamino)prop-1-yn-1-yl)pyrazin-2-yl) methanol] | 5.5 | 2.5 | 12 | – | –
COc1ccccc1OCC#Cc1cnc(N2CCC3(CC2)Cc2ccccc2[C@H]3N)c(CO)n1 [Compound A10, (S)-(3-(1-amino-1,3-dihydrospiro[indene-2,4′-piperidin]-1′-yl)-6-(3-(2-methoxyphenoxy)prop-1-yn-1-yl)pyrazin-2-yl)methanol] | 4.4 | – | 4.3 | – | –
CC(=O)c1cccc(OCC#Cc2cnc(N3CCC4(CC3)Cc3ccccc3[C@H]4N)c(CO)n2)c1 [Compound A16, (S)-1-(3-((3-(5-(1-amino-1,3-dihydrospiro[indene-2,4′-piperidin]-1′-yl)-6-(hydroxymethyl)pyrazin-2-yl)prop-2-yn-1-yl)oxy)phenyl)etha n-1-one] | 6.9 | – | 11 | – | –
CC(=O)Nc1cccc(OCC#Cc2cnc(N3CCC4(CC3)Cc3ccccc3[C@H]4N)n(C)c2=O)c1 [Compound A34, (S)-N-(3-((3-(2-(1-amino-1,3-dihydrospiro[indene-2,4′-piperidin]-1′-yl)-1-methyl-6-oxo-1,6-dihydropyrimidin-5-yl)prop-2-yn-1-yl)oxy)phenyl)acetamide] | 25 | – | 51 | – | –
CNC(=O)c1cccc(OCC#Cc2cnc(N3CCC4(CC3)Cc3ccccc3[C@H]4N)c(CO)n2)c1 [Compound A35, (S)-3-((3-(5-(1-amino-1,3-dihydrospiro[indene-2,4′-piperidine]-1′-yl)-6-(hydroxymethyl)pyrazin-2-yl)prop-2-yn-1-yl)oxy)-N-methylben zamide] | 3 | – | 3.6 | – | –
CN(C)C(=O)c1cccc(OCC#Cc2cnc(N3CCC4(CC3)Cc3ccccc3[C@H]4N)c(CO)n2)c1 [Compound A36, (S)-3-((3-(5-(1-amino-1,3-dihydrospiro[indene-2,4′-piperidin]-1′-yl)-6-(hydroxymethyl)pyrazin-2-yl)prop-2-yn-1-yl)oxy)-N,N-dimethylb enzamide] | 14 | – | 48 | – | –
NC(=O)c1nc(C#CCOc2ccc3c(c2)C(=O)NC3)cnc1N1CCC2(CC1)Cc1ccccc1[C@H]2N [Compound A42] | – | 15 | – | – | –
N[C@@H]1c2ccccc2CC12CCN(c1ncc(C#CCNc3ccc4c(c3)NC(=O)CC4)nc1CO)CC2 [Compound A64, (S)-7-((3-(5-(1-amino-1,3-dihydrospiro[indene-2,4′-piperidin]-1′-yl)-6-(hydroxymethyl)pyrazin-2-yl)prop-2-yn-1-yl)amino)-3,4-dihydroq uinolin-2(1H)-one] | 0.9 | – | 2.1 | – | –
N[C@@H]1c2ccccc2CC12CCN(c1ncc(C#CCOc3ccc4[nH]ncc4c3)nc1CO)CC2 [Compound A67, (S)-(6-(3-((1H-Indazol-5-yl)oxy)prop-1-yn-1-yl)-3-(1-amino-1,3-dihydrospiro[Indene-2,4′-piperidin]-1 ‘-yl)pyrazin-2-yl)methanol] | 1 | – | 0.9 | – | –
Nc1nc2cc(OCC#Cc3cnc(N4CCC5(CC4)Cc4ccccc4[C@H]5N)c(CO)n3)ccc2o1 [Compound A69, (S)-(3-(1-amino-1,3-dihydrospiro[inden-2,4′-piperidin]-1′-yl)-6-(3-((2-Aminobenzo[d]oxazol-5-yl)oxy)prop-1-yn-1-yl)pyrazin-2-yl)met hanol] | 0.7 | – | 2.1 | – | –
N[C@@H]1c2ccccc2CC12CCN(c1ncc(C#CCOc3ccc(C(F)(F)F)nc3)nc1CO)CC2 [Compound A70, (S)-(3-(1-amino-1,3-dihydrospiro[indene-2,4′-piperidin]-1′-yl)-6-(3-( (6-(trifluoromethyl)pyridin-3-yl)oxy)prop-1-yn-1-yl)pyrazin-2-yl)m ethanol] | 6.2 | – | 17 | – | –
CNC(=O)c1ccc(OCC#Cc2cnc(N3CCC4(CC3)Cc3ccccc3[C@H]4N)c(CO)n2)cc1 [Compound A72, (S)-4-((3-(5-(1-amino-1,3-dihydrospiro[indene-2,4′-piperidin]-1′-yl)-6-(hydroxymethyl)pyrazin-2-yl)prop-2-yn-1-yl)oxy)-N-methylbenzamide] | 1.8 | – | 3.5 | – | –

Source: patent US20230339882A1, “SHP2 INHIBITOR AND COMPOSITION AND APPLICATION THEREOF” (Betta Pharmaceuticals Co., Ltd., priority 2020, published 2023)
